“Also recorded” adds a separate entry of the source.
Experiments:
Erk and AKT = experiment: phospho-Erk and phospho-AKT in Ang-1 stimulated HUVECs; format: cell-based; settings: Homo sapiens, HUVEC, 10 min, 200 ng/mL Ang-1 for 10 minutes, read-out: IC50, downstream effectors Erk and AKT
Excerpt: (§1) Tie2 was then immunopurified (IP) and immunoblotted with anti-phosphotyrosine (pTyr) and anti-Tie2 antibodies to assess the degree of Tie2 autophosphorylation. Lysates were immunoblotted with anti-phospho-Erk and anti-phospho-AKT (Ser473) antibodies, respectively. Signals were quantified and normalized to GAPDH as a loading control. The results were shown in an immunoblot and a graph.

p38 pathway = experiment: HeLa cell phospho-HSP27 assay, anisomycin-stimulated; format: cell-based; settings: Homo sapiens; HeLa cells, 60 min pretreatment, 1 μg/mL anisomycin 60 min; read-out: apparent IC50, p38 pathway in cells (phospho-HSP27 Ser78)
Excerpt: Cells were labeled with antibodies against the phosphorylated form of HSP27 (Ser78) and GAPDH as a normalization control. Cells were imaged and quantified using a LI-COR Aeriustm imager.

Tie2 [1] = target: T1, Tie2 (Homo sapiens, UniProt Q02763); experiment: protein kinase IC50 determination (ATP at Km); format: biochemical; settings: ATP concentration at Km
Target sequence in this assay (Q02763 23-1124, species assumed): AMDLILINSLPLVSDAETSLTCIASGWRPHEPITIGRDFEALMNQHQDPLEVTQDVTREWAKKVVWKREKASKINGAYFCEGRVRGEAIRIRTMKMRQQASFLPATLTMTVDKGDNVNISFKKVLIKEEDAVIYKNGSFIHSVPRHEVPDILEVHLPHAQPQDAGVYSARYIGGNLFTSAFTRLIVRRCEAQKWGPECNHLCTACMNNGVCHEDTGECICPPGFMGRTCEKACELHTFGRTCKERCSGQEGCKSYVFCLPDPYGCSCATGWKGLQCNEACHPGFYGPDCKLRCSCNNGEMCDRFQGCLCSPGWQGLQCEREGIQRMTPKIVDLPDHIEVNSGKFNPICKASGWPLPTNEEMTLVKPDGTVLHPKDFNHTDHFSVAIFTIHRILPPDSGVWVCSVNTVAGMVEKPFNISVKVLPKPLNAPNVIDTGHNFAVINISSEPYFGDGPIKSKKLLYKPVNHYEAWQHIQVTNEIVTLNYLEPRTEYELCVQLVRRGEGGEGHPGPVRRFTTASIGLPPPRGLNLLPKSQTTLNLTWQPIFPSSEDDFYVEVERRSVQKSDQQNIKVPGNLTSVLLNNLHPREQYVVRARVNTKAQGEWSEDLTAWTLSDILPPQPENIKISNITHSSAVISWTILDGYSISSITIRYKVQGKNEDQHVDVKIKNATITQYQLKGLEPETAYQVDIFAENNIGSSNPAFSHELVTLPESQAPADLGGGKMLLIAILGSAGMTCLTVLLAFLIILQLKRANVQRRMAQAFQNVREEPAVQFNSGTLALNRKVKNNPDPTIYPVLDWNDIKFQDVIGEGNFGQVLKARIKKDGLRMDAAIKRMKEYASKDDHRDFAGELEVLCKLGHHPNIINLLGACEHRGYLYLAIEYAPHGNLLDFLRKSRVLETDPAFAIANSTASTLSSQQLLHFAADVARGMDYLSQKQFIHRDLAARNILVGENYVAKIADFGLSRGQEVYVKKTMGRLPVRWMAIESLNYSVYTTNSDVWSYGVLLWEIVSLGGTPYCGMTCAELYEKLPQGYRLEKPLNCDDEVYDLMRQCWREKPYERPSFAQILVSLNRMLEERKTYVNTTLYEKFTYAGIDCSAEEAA

[2] = Pharmacokinetics in mouse; format: in vivo, female Balb/c mice
Procedure: (§2) Non-compartmental (model independent) methods were used to analyze the plasma concentration time-curves derived from all species as described below. Clearance (Cl), calculated percent extraction ratios (ER %), volume of distribution (Vz), time to […] (t1/2) and exposure (AUC, area under the curve) values are provided below for mouse, rat, and monkey, respectively.
1. […] Blood samples were obtained at 15 and 30 minutes, and 1, 2, 4, 8 and 24 hours after PO dosing, and at 15 and 30 minutes, and 1, 2, 4, and 8 hours for IV administration.

CYP3A4 = target: T2, CYP3A4 (Homo sapiens, UniProt P08684); experiment: CYP inhibition assay (LC/MS, pooled human liver microsomes); format: in vitro ADME; settings: n=1
T2 construct: using pooled human liver microsomes (n=1); from tissue; host or cells: pooled human liver microsomes

VEGFR2 = target: T3, VEGFR2 (Homo sapiens, UniProt P35968); experiment: VEGFR2 autophosphorylation (Tyr1175) in VEGF-stimulated HUVECs; format: cell-based; settings: 20 ng/mL VEGF for 5 minutes, read-out: IC50, VEGFR2 autophosphorylation at Tyrosine residue 1175
T3 construct: endogenous in cells; host or cells: HUVEC
Procedure: Lysates of the various treatments were prepared and immunoblotted with antibodies specific for VEGFR2 phosphorylated at Tyr1175. […] Phospho-VEGFR2 signal was normalized to GAPDH as a loading control.

Tie2 [3] = target: T1, Tie2; experiment: Tie2 autophosphorylation in Ang-1 stimulated HUVECs; format: cell-based; set-up: endogenous in cells; host or cells: HUVEC; settings: 200 ng/mL Ang-1 for 10 minutes
Excerpt: as §1
Target sequence in this assay (Q02763 23-1124): as the sequence (Q02763 23-1124, species assumed) above

VEGFR = VEGFR (Homo sapiens, UniProt P35968); experiment: protein kinase IC50 determination (ATP at Km); format: biochemical; settings: ATP concentration at Km
K562 = K562 cell viability (CellTiter Blue); format: cell-based; settings: Homo sapiens; K562, 72 hours
Excerpt: Cell viability was subsequently measured using CellTiter Blue (Promega) to determine IC50 values for each compound.

micronucleus = experiment: Micronucleus assay (in vitro); format: cell-based
Procedure: (§3) hERG assay was performed using a standard patch clamp protocol. AMES assay (bacterial reverse mutation assay) was performed according to protocol. […] In vitro and in vivo micronucleus assays were performed according to protocol.

CYP2D6 = CYP2D6 (Homo sapiens, UniProt P10635); experiment: CYP inhibition assay (fluorescent probe, recombinant protein); format: in vitro ADME; settings: n=1
FGFR1 = FGFR1 (Homo sapiens, UniProt P11362); experiment: protein kinase IC50 determination (ATP at Km); format: biochemical; settings: ATP concentration at Km
[4] = Pharmacokinetics in monkey; format: in vivo, male Cynomologus monkeys
Excerpt: as §2
3. […] Blood was sampled at the same time points as listed for the Mouse PK study.

Solubility determination = format: physicochemical
RPMI 8226 = RPMI 8226 cell viability (CellTiter Blue); format: cell-based; settings: RPMI 8226, 72 hours
Procedure: Cell viability was then measured using CellTiter Blue (Promega) to determine IC50 values for each compound (Table 8). […] MG-132 produced an IC50 that was within historical ranges of in-house testing (Table 8).

Fyn = Fyn (Homo sapiens, UniProt P06241); experiment: protein kinase IC50 determination (ATP at Km); format: biochemical; settings: ATP concentration at Km
hERG = hERG (Homo sapiens, UniProt Q12809); experiment: hERG patch clamp; format: cell-based; settings: at 10 μM
Procedure: as §3

[5] = 14-day tolerability study in mice; format: in vivo; settings: 14 days, dosed as Compound 74
Procedure: Weight loss was assessed throughout study. Blood was removed on the final day for clinical chemistries (albumin, alkaline phosphatase, ALT, Amylase, BUN, calcium, cholesterol, creatinine, glucose, phosphate, total bilirubin, TP, Globulin).

CYP1A2 = CYP1A2 (Homo sapiens, UniProt P05177); experiment: CYP inhibition assay (fluorescent probe, recombinant protein); format: in vitro ADME; settings: n=1
Abl = Abl (Homo sapiens, UniProt P00519); experiment: protein kinase IC50 determination (ATP at Km); format: biochemical; settings: ATP concentration at Km
K562 cells = experiment: K562 subcutaneous tumor model (BCR-Abl-driven tumors); format: in vivo, Female Scid-beige mice; settings: for % Regression / Complete responses: K562 tumors, PO ×7, dosed as Compound 74; for Complete responses: n=8
Procedure: Test compounds were administered by oral gavage at the indicated doses and schedules when tumors reached 200±50 mm^3 in size. […] Tumor size and body weight were monitored throughout the study.

[6] = female, Balb/c, plasma, IV: 1 mg/kg
[7] = CD-1 mice, 10, 30 and 100 mg/kg BID, all dose groups

T2 sequence (P08684 whole entry): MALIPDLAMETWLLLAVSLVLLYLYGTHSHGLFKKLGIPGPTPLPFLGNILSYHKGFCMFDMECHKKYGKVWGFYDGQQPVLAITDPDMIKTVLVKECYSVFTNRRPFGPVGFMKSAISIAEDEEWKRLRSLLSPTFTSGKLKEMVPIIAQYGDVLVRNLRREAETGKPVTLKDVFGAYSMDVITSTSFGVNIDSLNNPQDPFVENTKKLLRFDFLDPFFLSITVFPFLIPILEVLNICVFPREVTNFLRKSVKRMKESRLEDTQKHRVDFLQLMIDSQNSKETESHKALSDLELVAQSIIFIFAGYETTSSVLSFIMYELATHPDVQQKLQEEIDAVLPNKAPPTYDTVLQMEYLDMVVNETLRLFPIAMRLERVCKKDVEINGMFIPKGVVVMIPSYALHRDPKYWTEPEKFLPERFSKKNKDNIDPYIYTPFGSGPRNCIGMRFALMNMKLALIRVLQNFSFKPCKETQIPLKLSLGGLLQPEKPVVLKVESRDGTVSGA
Chain of Abl (P00519 whole entry, species assumed): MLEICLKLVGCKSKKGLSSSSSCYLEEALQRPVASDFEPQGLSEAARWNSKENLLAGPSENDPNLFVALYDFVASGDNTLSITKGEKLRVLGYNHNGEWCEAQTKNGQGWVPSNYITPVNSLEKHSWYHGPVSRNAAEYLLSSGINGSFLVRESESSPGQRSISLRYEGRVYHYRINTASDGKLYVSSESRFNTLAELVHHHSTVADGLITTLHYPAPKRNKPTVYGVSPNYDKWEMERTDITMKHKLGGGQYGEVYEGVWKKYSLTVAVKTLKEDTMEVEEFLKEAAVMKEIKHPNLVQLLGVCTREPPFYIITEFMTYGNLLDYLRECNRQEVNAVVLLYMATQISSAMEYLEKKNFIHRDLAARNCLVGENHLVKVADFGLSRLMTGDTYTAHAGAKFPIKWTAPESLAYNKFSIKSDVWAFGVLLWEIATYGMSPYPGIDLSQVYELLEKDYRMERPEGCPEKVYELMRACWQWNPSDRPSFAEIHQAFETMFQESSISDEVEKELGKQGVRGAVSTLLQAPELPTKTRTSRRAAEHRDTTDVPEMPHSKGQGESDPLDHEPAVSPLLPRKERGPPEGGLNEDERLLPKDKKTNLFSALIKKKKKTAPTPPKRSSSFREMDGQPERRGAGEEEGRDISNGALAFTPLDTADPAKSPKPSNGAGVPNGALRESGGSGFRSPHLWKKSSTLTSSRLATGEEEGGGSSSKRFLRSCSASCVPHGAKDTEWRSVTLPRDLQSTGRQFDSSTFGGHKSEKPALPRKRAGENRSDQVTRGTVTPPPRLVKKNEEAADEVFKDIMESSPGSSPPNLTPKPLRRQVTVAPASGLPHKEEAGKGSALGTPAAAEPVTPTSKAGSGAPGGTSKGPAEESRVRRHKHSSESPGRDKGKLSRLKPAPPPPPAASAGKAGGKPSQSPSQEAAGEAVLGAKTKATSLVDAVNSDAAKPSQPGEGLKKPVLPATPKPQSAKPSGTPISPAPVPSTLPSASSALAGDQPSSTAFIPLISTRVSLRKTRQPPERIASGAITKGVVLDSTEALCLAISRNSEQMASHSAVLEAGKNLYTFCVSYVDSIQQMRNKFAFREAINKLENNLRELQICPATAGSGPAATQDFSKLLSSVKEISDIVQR
Chain of VEGFR (P35968 20-1356): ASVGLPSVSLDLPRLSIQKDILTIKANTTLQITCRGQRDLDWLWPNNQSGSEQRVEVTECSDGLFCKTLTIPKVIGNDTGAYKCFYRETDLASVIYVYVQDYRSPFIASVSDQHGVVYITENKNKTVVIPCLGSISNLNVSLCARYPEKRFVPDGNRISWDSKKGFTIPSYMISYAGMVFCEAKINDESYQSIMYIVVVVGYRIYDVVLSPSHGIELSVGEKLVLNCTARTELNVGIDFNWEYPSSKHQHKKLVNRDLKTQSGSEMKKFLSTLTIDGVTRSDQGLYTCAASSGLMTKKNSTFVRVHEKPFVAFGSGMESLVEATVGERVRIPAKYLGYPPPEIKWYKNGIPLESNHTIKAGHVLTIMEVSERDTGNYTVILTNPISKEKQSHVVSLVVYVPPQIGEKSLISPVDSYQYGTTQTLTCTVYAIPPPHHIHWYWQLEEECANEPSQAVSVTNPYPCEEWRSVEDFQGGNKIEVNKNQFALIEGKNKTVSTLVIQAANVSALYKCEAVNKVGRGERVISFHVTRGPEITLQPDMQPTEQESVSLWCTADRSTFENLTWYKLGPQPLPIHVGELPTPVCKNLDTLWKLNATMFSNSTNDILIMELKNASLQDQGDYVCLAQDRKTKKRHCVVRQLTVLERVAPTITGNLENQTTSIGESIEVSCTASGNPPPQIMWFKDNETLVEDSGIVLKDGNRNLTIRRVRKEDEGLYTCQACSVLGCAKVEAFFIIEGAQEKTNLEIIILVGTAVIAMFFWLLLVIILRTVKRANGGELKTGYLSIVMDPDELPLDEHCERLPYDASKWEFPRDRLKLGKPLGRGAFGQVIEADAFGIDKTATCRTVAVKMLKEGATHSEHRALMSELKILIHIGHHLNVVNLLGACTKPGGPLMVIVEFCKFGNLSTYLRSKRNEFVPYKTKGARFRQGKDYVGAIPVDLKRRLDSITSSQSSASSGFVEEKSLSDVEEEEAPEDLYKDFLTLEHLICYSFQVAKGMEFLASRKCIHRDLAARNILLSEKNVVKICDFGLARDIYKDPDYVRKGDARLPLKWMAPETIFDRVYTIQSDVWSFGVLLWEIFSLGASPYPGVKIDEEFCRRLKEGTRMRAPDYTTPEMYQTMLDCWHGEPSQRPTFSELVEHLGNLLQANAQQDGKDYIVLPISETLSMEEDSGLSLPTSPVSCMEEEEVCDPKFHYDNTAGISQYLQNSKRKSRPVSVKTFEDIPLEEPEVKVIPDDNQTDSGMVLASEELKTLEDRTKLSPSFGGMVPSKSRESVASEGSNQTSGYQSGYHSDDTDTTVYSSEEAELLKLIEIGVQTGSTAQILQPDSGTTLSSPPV
T3 sequence (P35968 20-1356): as above
Chain of FGFR1 (P11362 22-822, species assumed): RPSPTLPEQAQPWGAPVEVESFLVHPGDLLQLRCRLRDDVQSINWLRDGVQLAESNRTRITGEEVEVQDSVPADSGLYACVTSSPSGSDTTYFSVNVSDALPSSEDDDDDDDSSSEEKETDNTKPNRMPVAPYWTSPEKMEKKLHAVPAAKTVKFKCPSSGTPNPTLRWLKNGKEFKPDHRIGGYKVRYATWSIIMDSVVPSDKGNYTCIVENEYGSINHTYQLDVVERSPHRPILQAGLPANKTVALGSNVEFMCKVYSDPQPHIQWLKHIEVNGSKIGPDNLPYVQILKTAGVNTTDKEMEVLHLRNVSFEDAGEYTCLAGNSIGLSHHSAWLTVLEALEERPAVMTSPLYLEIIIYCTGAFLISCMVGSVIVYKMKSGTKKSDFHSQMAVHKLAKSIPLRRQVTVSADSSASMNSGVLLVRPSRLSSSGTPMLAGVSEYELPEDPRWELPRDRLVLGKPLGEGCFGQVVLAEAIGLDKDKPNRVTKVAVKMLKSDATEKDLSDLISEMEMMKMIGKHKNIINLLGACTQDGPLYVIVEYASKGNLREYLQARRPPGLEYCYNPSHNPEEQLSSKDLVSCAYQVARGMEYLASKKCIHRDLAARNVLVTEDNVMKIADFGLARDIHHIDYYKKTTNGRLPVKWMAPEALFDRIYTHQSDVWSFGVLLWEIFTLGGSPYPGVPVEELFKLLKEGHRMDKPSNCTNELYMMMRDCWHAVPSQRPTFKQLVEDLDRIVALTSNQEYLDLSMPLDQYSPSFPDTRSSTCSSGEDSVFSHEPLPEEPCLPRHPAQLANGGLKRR

Q: What does the source list for Cc1ccc(-n2nc(C(C)(C)C)cc2NC(=O)NCc2cc(F)ccc2Oc2ccc3c(cnn3CCO)c2)cc1 [Compound 72, 1-(3-tert-butyl-1-p-tolyl-1H-pyrazol-5-yl)-3-(5-fluoro-2-(1-(2-hydroxyethyl)-1H-indazol-5-yloxy)benzyl)urea]?
A: IC50 (Erk and AKT): < 11 nM; IC50 (p38 pathway): 2 nM; IC50 (Tie2 [1]): 1 nM; AUC ([2]; IV: 1 mg/kg): AUC = 6.6 μg-hr/kg; ER ([2]; IV: 1 mg/kg): ER = 2.8%; AUC ([2]; Oral: 10 mg/kg): AUC = 10.5 μg-hr/kg; F ([2]; Oral: 10 mg/kg): F = 16%; clearance [2, 6]: 2.6 mL/min/kg; half-life [2, 6]: 234 min; Vd ([2]; female, Balb/c, plasma, IV: 1 mg/kg, read-out: Vz): 0.085 L/kg; Cmax ([2]; female, Balb/c, plasma, Oral: 10 mg/kg): 1800 ng/mL; IC50 (CYP3A4; substrate Midazolam): ~8 µM; IC50 (CYP3A4; substrate Testosterone): ~10 µM; IC50 (VEGFR2): 48 nM; IC50 (Tie2 [3]): < 33 nM; IC50 (VEGFR): 74 nM; IC50 (K562): 62 nM; Micronucleus (in vitro) (micronucleus): Negative; IC50 (CYP2D6): 3 µM; IC50 (FGFR1): 28 nM; AUC ([4]; IV: 1 mg/kg): AUC = 4.1 μg-hr/kg; ER ([4]; IV: 1 mg/kg): ER = 20%; AUC ([4]; Oral: 10 mg/kg): AUC = 7.6 μg-hr/kg; F ([4]; Oral: 10 mg/kg): F = 38%; clearance ([4]; male, plasma, IV: 1 mg/kg): 8.8 mL/min/kg; half-life ([4]; male, plasma, IV: 1 mg/kg): 276 min; Vd ([4]; male, plasma, IV: 1 mg/kg, read-out: Vz): 3.2 L/kg; Cmax ([4]; male, plasma, Oral: 10 mg/kg): 260 ng/mL; solubility (Solubility determination; aqueous buffer, pH 3.0): < 5 µg/mL; solubility (Solubility determination; pH 7.4, aqueous buffer): < 5 µg/mL; IC50 (RPMI 8226; Homo sapiens, read-out: Proliferation IC50): > 10 µM; anti-proliferative effect (RPMI 8226; over the indicated concentration range): not anti-proliferative; IC50 (Fyn): 41 nM; hERG Patch Clamp Inhibition (hERG): 64% Inhibition at 10 μM; Clinical chemistries [5, 7]: Within normal range (all dose groups); Weight loss [5, 7]: <5% (all dose groups); dose-limiting toxicities (DLTs) ([5]; CD-1 mice, up to 100 mg/kg BID): no dose-limiting toxicities (DLTs) were seen; also recorded: no observed DLTs; IC50 (CYP1A2): 25 µM; IC50 (Abl): 4 nM; body weight loss (K562 cells; K562 tumor-bearing Scid-beige mice, throughout the course of treatment): less than 10%; % Regression (K562 cells; 30 mg/kg BID): Stasis; Complete responses (K562 cells; 30 mg/kg BID): 0/8; % Regression (K562 cells; 100 mg/kg BID): 93%; Complete responses (K562 cells; 100 mg/kg BID): 5/8; % Regression (K562 cells; 100 mg/kg QD): Stasis; Complete responses (K562 cells; 100 mg/kg QD): 0/8
